Measurements: patent publication US20230321181A1, “COMPOSITION FOR PREVENTION, IMPROVEMENT OR TREATMENT OF ALLERGIC DISEASE OR ITCHING COMPRISING PENTAPEPTIDE AS ACTIVE INGREDIENT” (CAREGEN CO, LTD., priority 2020, published 2023)

Assays:
[1] = test system: mast cells (rat basophilic leukemia cell line, RBL-2H3); test: Degranulation (β-hexosaminidase release) in DNP-IgE/DNP-HSA stimulated mast cells; assay type: cell-based; details: 10 μM or 100 μM, 30 min pretreatment, DNP-IgE sensitized, DNP-HSA 3 hours, vs control (NC)
Protocol: In order to confirm the effect of inhibiting allergic inflammatory response and improving atopic dermatitis by the pentapeptide of the present invention, the degree of degranulation was confirmed using mast cells (rat basophilic leukemia cell line, RBL-2H3).
Specifically, RBL-2H3 cells were inoculated into a 12-well plate at a density of 5×10^5 cells/well, and then cultured overnight at a 37° C., 5% CO2 incubator. Then, the cells were sensitized by adding DNP-IgE to a complete medium. After 3 hours, it was washed 3 times with DPBS and then PIPES buffer was added thereto. In addition, an immune response was induced by pretreatment with the pentapeptide of the present invention synthesized in Example 1 for 30 minutes and then with DNP-HSA for 3 hours. After that, 25 μL of the supernatant was recovered, 25 μL of the substrate solution (5 mM p-nitrophenyl-N-acetyl-β-D-glucosaminide dissolved in 0.2 M sodium citrate buffer, pH 4.5) was added thereto, and then incubated at 37° C. for 90 minutes to react. After the reaction, 200 μL of stop solution (0.1 M Na2CO3/NaHCO3, pH 10.0) was added to each well to stop the enzymatic reaction, and absorbance was measured at 405 nm using a microplate reader. β-hexosamidase secreted from the supernatant was quantified according to Equation 1 below after adding 0.5% Triton X-100 solution to the cells. […]

[2] = test system: mast cells (rat basophilic leukemia cell line, RBL-2H3); test: Expression of inflammation-related cytokines in mast cells (RT-PCR); assay type: cell-based; details: RBL-2H3, DNP-IgE sensitized, DNP-HSA 2 hours, vs control (NC)
Protocol: In order to confirm the effect of inhibiting allergic inflammatory response and improving atopic dermatitis by the pentapeptide of the present invention, the expression pattern of inflammation-related cytokines was confirmed using mast cells (rat basophilic leukemia cell line, RBL-2H3).
Specifically, RBL-2H3 cells were inoculated into a 12-well plate at a density of 5×10^5 cells/well, and then cultured overnight at a 37° C., 5% CO2 incubator. Then, the cells were sensitized by adding DNP-IgE to a complete medium. After 3 hours, it was washed 3 times with DPBS and then PIPES buffer was added thereto. In addition, an immune response was induced by pretreatment with the pentapeptide of the present invention synthesized in Example 1 for 30 minutes and then with DNP-HSA for 2 hours. At this time, 20 μg/mL of ketotifen was used as a positive control.
(§1) After recovering the cells and then isolating RNA, cDNA was synthesized from the isolated RNA using a cDNA synthesis kit (Intron, Korea). A polymerase chain reaction was performed using the synthesized cDNA, PCR premix (Intron, Korea) and IL-3, IL-4, and TNF-α primers, and the amplified PCR product was electrophoresed on an agarose gel to confirm a DNA band. The primer sequences used at this time are as shown in [Table 1].

[3] = High temperature stability during long-term storage at 45° C. (HPLC); assay type: physicochemical; details: 1000 ppm in sterile distilled water, 7 to 75 days
Protocol: The peptide of the present invention consisting of the amino acid sequence of SEQ ID NO: 1 was dissolved in sterile distilled water at a concentration of 1000 ppm, stored at 45° C. for 7 days, 14 days, 28 days, 60 days and 75 days, followed by HPLC analysis.

mouse splenocytes = test: Expression of inflammation-related cytokines in splenocytes (RT-PCR); assay type: cell-based; details: TNF-α induced, 30 minutes, vs control (NC)
Protocol: In order to confirm the effect of inhibiting allergic inflammatory response and improving atopic dermatitis by the pentapeptide of the present invention, the expression pattern of inflammation-related cytokines was confirmed using mouse splenocytes.
Specifically, after separating mouse splenocytes, the cells were inoculated into a 24-well plate at a density of 1×10^7 cells/well, and then cultured overnight at a 37° C., 5% CO2 incubator. After changing the medium to a serum-free medium, 4 hours later, the pentapeptide of the present invention and TNF-α were treated and cultured for 30 minutes. At this time, 20 μg/mL of ketotifen was used as a positive control.
as §1, with “synthesized” for “synthesized from the isolated RNA”, “TNF-α, IL-113” for “IL-3, IL-4,”, “COX-2” for “TNF-α”, “2].” for “1].”

[4] = High temperature stability at 121° C. (HPLC); assay type: physicochemical; details: 1000 ppm in sterile distilled water, 15 and 30 minutes
Protocol: The peptide of the present invention was dissolved in sterile distilled water at a concentration of 1000 ppm, heated at 121° C. for 15 minutes and 30 minutes, followed by HPLC analysis.

## KFLIK (Pentapeptide) [pentapeptide of the present invention]
[1]
  release amount of β-hexosamidase: decreased in a concentration-dependent manner
[2]
  expression of IL-3: significantly reduced
  expression of IL-4: significantly reduced
  expression of TNF-α: significantly reduced
[3]
  high-temperature stability during long-term storage: maintained stability for 75 days
Mouse splenocytes
  expression of COX-2: significantly reduced
  expression of IL-1β: significantly reduced
  expression of TNF-α: significantly reduced
[4]
  high-temperature stability at maximum heating temperature: maintained stability for 30 minutes
